Data from paper PMC9374667 (Communications Biology, 2022).
Several values for one entry are separate records, joined by “and”; a condition that tells them apart may be missing. Identical values can stand only once. Like-named read-outs stand apart in the source and are kept apart here.

Experiments:
[1] = Berberine content in adipose tissue of db/db mice (HPLC); details: BJ 75 and 150 mg/kg, BBR 150 mg/kg, crushing, extracting
From the text: Response: We thank the Reviewer for this comment. In line with the Reviewer ’s
each group by crushing, extracting, and HPLC analysis.
based on the improved bioavailability.
Figure 1. (a) The positions of the peaks of berberine standards in the HPLC assay.

[2] = cited from earlier work
IKKε = target: T1, IKKε (Mus musculus, UniProt Q9R0T8); assay: 3T3-L1 adipocytes transfected with IKKε plasmid (western blotting, cAMP, glycerol, ISO); format: cell-based, Murine; set-up: endogenous in cells; host or cells: differentiated 3T3-L1 adipocytes; IKKε (western blotting, Figure 8h) / UCP1 (western blotting, Figure 8i) / UCP1 (western blotting, Figure 8j): scale not given here; cAMP levels (Figure 8k) / Glycerol release (Figure 8l): unit not given here
T1 sequence (Q9R0T8 1-717): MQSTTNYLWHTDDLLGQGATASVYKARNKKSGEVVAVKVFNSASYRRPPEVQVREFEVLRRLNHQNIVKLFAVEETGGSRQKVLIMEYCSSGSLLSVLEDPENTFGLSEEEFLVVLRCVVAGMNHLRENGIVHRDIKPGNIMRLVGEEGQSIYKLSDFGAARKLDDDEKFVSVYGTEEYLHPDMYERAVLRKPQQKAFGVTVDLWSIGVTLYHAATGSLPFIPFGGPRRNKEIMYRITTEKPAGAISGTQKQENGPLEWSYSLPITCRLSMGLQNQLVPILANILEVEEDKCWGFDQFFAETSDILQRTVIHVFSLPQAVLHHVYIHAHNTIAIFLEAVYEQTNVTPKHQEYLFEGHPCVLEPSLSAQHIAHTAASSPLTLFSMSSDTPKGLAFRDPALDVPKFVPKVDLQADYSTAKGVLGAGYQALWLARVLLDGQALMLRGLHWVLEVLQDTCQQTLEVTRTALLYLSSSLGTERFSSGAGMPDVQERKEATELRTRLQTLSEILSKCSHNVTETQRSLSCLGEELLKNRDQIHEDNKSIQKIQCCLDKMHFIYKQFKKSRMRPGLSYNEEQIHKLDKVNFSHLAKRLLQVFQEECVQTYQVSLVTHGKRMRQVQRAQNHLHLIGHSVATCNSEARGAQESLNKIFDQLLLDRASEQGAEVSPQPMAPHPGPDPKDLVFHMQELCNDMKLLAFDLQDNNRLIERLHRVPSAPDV
Procedure: Small interference RNA transfection (siRNA) was performed using 4 μM TBK1 siRNA (siTBK1) or 4 μM […]ε) or corresponding NC siRNA (siNC). The epididymal adipose tissue was dissected, the fresh adipose tissue was weighed and rapidly rinsed with PBS. The adipose tissue was cut and incubated with isoproterenol (10 μM) for 2 h, and homogenized in a cold cleavage buffer to prepare the adipose tissue homogenate. Then the homogenate was centrifuged at 12,000 × g at 4 °C for 15 min, and the supernatant was collected. […] Then the cells were lysed in a petri dish, scraped off, and centrifuged at 12,000 × g at 4 °C for 15 min before the supernatant was collected. […] And concentrations were further standardized according to protein concentration. The adipose tissue or 3T3-L1 adipocytes were homogenized by ultrasound in an ice-cold RIPA lysis buffer containing 1% PMSF and centrifuged at 12,000 × g at 4°C for 15 min to collect the supernatant. The BCA protein assay kit (Beyotime, Shanghai, China) was used to detect the total protein concentration. Proteins (20-30 μg) of the sample were separated by 10% SDS-PAGE gel and transferred onto polyvinylidene difluoride (PVDF) membranes. Then the PVDF membranes were blocked in 5% skim milk powder in TBS containing 1% Tween-20 (TBST) for 2 h at room temperature and washed with TBST for 3 times. […] After washing, the membranes were incubated with horseradish peroxidase-conjugated secondary antibodies (in 5% skim milk powder) for 1 h at room temperature. Finally, the membranes were treated with enhanced chemiluminescence agents (Tanon, Shanghai, China) and the signals were monitored using the Tanon 5200 multi chemiluminescent imaging system (Tanon, Shanghai, China).

[3] = test system: IKKε, TBK1, p-TBK1, UCP1, p-AMPKα; assay: Western blotting of eWAT; format: in vivo; details: db/db mice
Procedure: The adipose tissue or 3T3-L1 adipocytes were homogenized by ultrasound in an ice‐cold RIPA lysis buffer containing 1% PMSF and centrifuged at 12,000 × g at 4°C for 15 min to collect the supernatant. The BCA protein assay kit (Beyotime, Shanghai, China) was used to detect the total protein concentration. Proteins (20-30 μg) of the sample were separated by 10% SDS-PAGE gel and transferred onto polyvinylidene difluoride (PVDF) membranes. Then the PVDF membranes were blocked in 5% skim milk powder in TBS containing 1% Tween-20 (TBST) for 2 h at room temperature and washed with TBST for 3 times. The membranes were incubated with the appropriate primary antibody, IKKε (1:1000 dilution), TBK1 (1:1000 dilution), p-TBK1 Ser172 (1:1000 dilution), p-AMPKα Thr172 (1:1000 dilution), UCP1 (1:1000 dilution), and GAPDH (1:1000 dilution) in the blocking buffer solution at 4 °C overnight. After washing, the membranes were incubated with horseradish peroxidase-conjugated secondary antibodies (in 5% skim milk powder) for 1 h at room temperature. Finally, the membranes were treated with enhanced chemiluminescence agents (Tanon, Shanghai, China) and the signals were monitored using the Tanon 5200 multi chemiluminescent imaging system (Tanon, Shanghai, China).

[4] = 3T3-L1 adipocytes transfected with IKKε plasmid, 24 h of BJ treatment

COc1ccc2cc3[n+](cc2c1OC)CCc1cc2c(cc1-3)OCO2 [BBR, Berberine chloride dihydrate]
BBR in adipose tissue (accumulation) [1]: not detected | Maximum plasma concentration (Cmax) ([2]; acute oral BBR (400 mg) provocation tests): approximately 0.4 ng/ml | Share of the oral dose that enters the systemic circulation ([2]; human subjects): less than 5% | Steady-state concentration in human plasma ([2]; oral BBR 300 mg/d for seven days): approximately 0.3 ng/ml

CC(C)Cc1ccc(C(C)C(=O)[O-])cc1.COc1ccc2cc3[n+](cc2c1OC)CCc1cc2c(cc1-3)OCO2.O.O.O.O [BJ, berberine-ibuprofen]
IKKε (western blotting, Figure 8h) (IKKε): 0.3064 and 0.3337 and 0.413 | IKKε (western blotting, Figure 8h) (IKKε; 3μg IKKε+10μM BJ): 0.3573 and 0.3516 and 0.3871 | UCP1 (western blotting, Figure 8i) (IKKε; 3μg IKKε+10μM BJ): 0.8819 and 0.7296 and 0.665 | UCP1 (western blotting, Figure 8i) (IKKε; 10μM BJ): 0.7179 and 0.7672 and 0.7892 | IKKε protein level (IKKε; [4]): significantly decreased | UCP1 protein level (IKKε; [4]): significantly increased | Glycerol release (Figure 8l) (IKKε; BJ): 86.9484 and 84.4172 and 92.0109 | UCP1 (western blotting, Figure 8j) (IKKε; BJ): 0.7729 and 0.7093 and 0.8167 | cAMP levels (Figure 8k) (IKKε; BJ): 0.1832 and 0.1783 and 0.1808 | Glycerol release (Figure 8l) (IKKε; BJ+IKKε): 68.3861 and 70.0736 and 61.6362 | UCP1 (western blotting, Figure 8j) (IKKε; BJ+IKKε): 0.4841 and 0.4628 and 0.4991 | cAMP levels (Figure 8k) (IKKε; BJ+IKKε): 0.1738 and 0.178 and 0.1687 | Glycerol release (Figure 8l) (IKKε; ISO+BJ): 156.135 and 153.604 and 151.073 | UCP1 (western blotting, Figure 8j) (IKKε; ISO+BJ): 0.9653 and 0.8916 and 1.268 | cAMP levels (Figure 8k) (IKKε; ISO+BJ): 0.3323 and 0.3162 and 0.3269 | Glycerol release (Figure 8l) (IKKε; ISO+BJ+IKKε): 123.229 and 124.917 and 128.292 | UCP1 (western blotting, Figure 8j) (IKKε; ISO+BJ+IKKε): 0.6833 and 0.6687 and 0.7939 | cAMP levels (Figure 8k) (IKKε; ISO+BJ+IKKε): 0.2266 and 0.2216 and 0.2337 | Inhibition of ISO efficacy (UCP1, glycerol release, cAMP) by IKKε overexpression (IKKε; transfected 3T3-L1 adipocytes, 10 µM BJ): ameliorated | Expression of UCP1 and phosphorylation of TBK1 at Ser172 in eWAT [3]: increased | Protein levels of IKKε and TBK1 in eWAT ([3]; both doses of BJ, western blotting): significantly reduced | AMPKα Thr172 phosphorylation (p-AMPKα) in eWAT ([3]; inhibited in db/db eWAT): restored
